Assay results published in patent publication US20220184071A1, “GEPOTIDACIN FOR USE IN THE TREATMENT OF BACTERIAL URINARY TRACT INFECTIONS” (GlaxoSmithKline Intellectual Property Development Limited, priority 2019, published 2022).
In brackets after ≈: the same amount, converted by molar mass.

How the values were obtained:
[1] = tested on: Proteus hauseri and Proteus peneri; test: MIC by CLSI agar dilution, Example 1 Method 2; format: cell-based; settings: at least one strain of every organism listed
Procedure: Antimicrobial activity was determined in a second study by […] using the CLSI recommended procedure in serial two-fold dilutions and the minimum inhibitory concentration (MIC) was determined as the lowest concentration of the compound that inhibited visible growth. Amikacin, ceftazidime, colistin, fosfomycin, levofloxacin, meropenem, nitrofurantoin and trimethoprim-sulfamethoxazole were included as comparators. MICs for and comparators were determined by agar dilution according CLSI methods. In addition, gepotidacin and all of the aforementioned comparators identified in this method were evaluated against gram-negative aerobic organisms selected from Proteus hauseri and Proteus […]. Gepotidacin was tested in at least one exemplified salt.

E. coli [2] = test: Neutropenic mouse thigh infection model PK/PD; format: in vivo
Procedure: PK and PD studies using gepotidacin were conducted in murine (male CD-1 mice) thigh and kidney infections. The administered doses ranged from 1 to 200 mg/kg SC every 6 hours starting 1h post infection. Infected tissues were evaluated for bacterial burden at 24 h post infection (baseline controls at 1 h post infection).
Efficacy was determined against E. coli ALL, 997577, ATCC25922, IR5 and NCTC13441 (MICs of 1 to 4 μg/mL) in thigh-infected neutropenic (I−) mice and against E. coli ALL in kidney-infected immunocompetent (I+) and I− mice. The PopPK model was used to determine GEP exposures associated with efficacy. PK-PD analyses were conducted using Phoenix WinNonLin 6.3 (Pharsight). The change in login colony forming units (CFU) from baseline were correlated with free drug (f) AUC:MIC using an inhibitory model from the Phoenix library, and model parameter values for each isolate were used to calculate the plasma fAUC:MIC associated with stasis, 1- or 2-login reductions in CFU.
PD studies were conducted using thigh and/or kidney infection models in neutropenic or competent mice (N=5/group). Mice were infected with a bacterial suspension in log phase: 100 μL in the left thigh muscle or 50 μL in each of both kidneys (100 μl total). Final inocula across all isolates were 6.0 to 7.0 login CFU/mouse. Dose-ranging studies were conducted with 5 isolates (see Table 1). Starting 1 hr after infection, GEP was given SC (0.2 mL/mouse) at discrete doses of 1-200 mg/kg every 6 hours (q6) for a 24-hour period (4 doses in total). Mice were euthanized 24 hr after start of therapy (6 hr after the last dose), and infected thighs or kidneys were processed to determine viable bacterial counts (CFU). Baseline CFU were obtained from untreated mice at 1 hr post infection and growth control CFU from saline-treated mice at 24 hr.
NCA analyses were conducted with the simulated data.
PK-PD analysis was conducted using Phoenix WinNonLin 6.3 (Pharsight): • Log10 colony forming units (CFU) from each group were correlated with PK-PD parameters using several inhibitory models from the Phoenix library. • Model parameter values for each isolate were used to calculate the PK-PD parameter value associated with stasis, 1-log or 2-log reductions from baseline 1 h controls.

E. coli [3] = test: MIC by CLSI agar dilution, Example 1 Method 2; format: cell-based, Escherichia coli
Procedure: Antimicrobial activity was determined in a second study by […] using the CLSI recommended procedure in serial two-fold dilutions and the minimum inhibitory concentration (MIC) was determined as the lowest concentration of the compound that inhibited visible growth.
MICs were determined according to CLSI agar dilution guidelines.

[4] = tested on: all the gram-negative anaerobe organisms combined; test: MIC by CLSI agar dilution, Example 6 Method 1; format: cell-based; settings: all gram-negative anaerobes combined; read-out: overall MIC90
Procedure: (§1) Antimicrobial activity was determined by agar dilution using the Clinical and Laboratory Standards Institute (CLSI) recommended procedure.
(§2) The compounds were tested in serial two-fold dilutions and the minimum inhibitory concentration (MIC) was determined as the lowest concentration of the compound that inhibited visible growth. Gepotidacin was tested against 333 gram-negative anaerobic and 203 gram-positive anaerobic isolates collected from clinical samples in North America and Europe from 2000 to 2017; the majority collected from 2013 to 2016.
(§3) Ceftriaxone, clindamycin, imipenem, metronidazole, moxifloxacin and piperacillin/tazobactam were included as comparators.

[5] = tested on: gram-positive anaerobe organisms combined; test: MIC by CLSI agar dilution, Example 6 Method 1; format: cell-based; settings: gram-positive anaerobes combined; read-out: overall MIC90
Procedure: as §1, §2, §3

Bilophila wadsworthia = test: MIC by CLSI agar dilution, Example 6 Method 1; format: cell-based; settings: 26 isolates, read-out: Gepotidacin MIC90
Procedure: as §1, §2, §3

[6] = 5 E. coli isolates, listed as Gepotidacin

Compound: O=c1ccc2ncc(=O)n3c2n1C[C@H]3CN1CCC(NCc2cc3c(cn2)OCCC3)CC1 [gepotidacin, (2R)-2-({4-[(3,4-dihydro-2H-pyrano[2,3-c]pyridin-6-ylmethyl)amino]-1-piperidinyl}methyl)-1,2-dihydro-3H,8H-2a,5,8a-triazaacenaphthylene-3,8-dione]
- MIC [1]: ≤ 8 µg/mL
- Median daily plasma fAUC/MIC for 1-log Drop (E. coli [2]; 5 E. coli isolates): 16
- Median daily plasma fAUC/MIC for 2-log Drop (E. coli [2]; 5 E. coli isolates): 25
- Median daily plasma fAUC/MIC for stasis (E. coli [2]; 5 E. coli isolates): 11
- range of plasma fAUC:MIC ratios for 1-log10 reduction in CFU (E. coli [2]; 5 E. coli isolates): 4-25
- range of plasma fAUC:MIC ratios for 2-log10 reduction in CFU (E. coli [2]; 5 E. coli isolates): 7-40
- range of plasma fAUC:MIC ratios for stasis (E. coli [2]; 5 E. coli isolates): 3-17
- Median daily plasma fAUC/MIC for 1-log Drop (E. coli [2]; [6]): 16.0
- Median daily plasma fAUC/MIC for 2-log Drop (E. coli [2]; [6]): 25.4
- Median daily plasma fAUC/MIC for stasis (E. coli [2]; [6]): 10.6
- Daily fAUC/MIC for 1-log Drop, Mean ± SD (E. coli [2]; 5 strains): 14.6 ± 9.0
- Daily fAUC/MIC for 2-log Drop, Mean ± SD (E. coli [2]; 5 strains): 22.9 ± 12.8
- Daily fAUC/MIC for Stasis, Mean ± SD (E. coli [2]; 5 strains): 9.9 ± 6.8
- Daily fAUC/MIC for 1-log Drop (E. coli [2]; Strain 997577): 16.0
- Daily fAUC/MIC for 2-log Drop (E. coli [2]; Strain 997577): 25.4
- Daily fAUC/MIC for Stasis (E. coli [2]; Strain 997577): 10.6
- Daily fAUC/MIC for 1-log Drop (E. coli [2]; Strain ALL, Neutropenic Thigh): 6.5
- Daily fAUC/MIC for 2-log Drop (E. coli [2]; Strain ALL, Neutropenic Thigh): 13.8
- Daily fAUC/MIC for Stasis (E. coli [2]; Strain ALL, Neutropenic Thigh): 3.0
- Daily fAUC/MIC for 1-log Drop (E. coli [2]; Strain ATCC25922): 21.5
- Daily fAUC/MIC for 2-log Drop (E. coli [2]; Strain ATCC25922): 27.6
- Daily fAUC/MIC for Stasis (E. coli [2]; Strain ATCC25922): 16.8
- Daily fAUC/MIC for 1-log Drop (E. coli [2]; Strain IR5): 4.3
- Daily fAUC/MIC for 2-log Drop (E. coli [2]; Strain IR5): 7.2
- Daily fAUC/MIC for Stasis (E. coli [2]; Strain IR5): 2.8
- Daily fAUC/MIC for 1-log Drop (E. coli [2]; Strain NCTC13441): 24.9
- Daily fAUC/MIC for 2-log Drop (E. coli [2]; Strain NCTC13441): 40.3
- Daily fAUC/MIC for Stasis (E. coli [2]; Strain NCTC13441): 16.2
- Median plasma fAUC:MIC targets ranged (E. coli [2]; stasis to 2-log10 reduction): 11 to 25
- MICs ranged (E. coli [3]; 254 isolates): ≤0.06 to 64 mg/L
- % of the tested isolates inhibited at ≤8 mg/L (E. coli [3]; 254 isolates, enriched for drug resistance): 96.1%
- MIC50 (E. coli [3]; Escherichia coli, n = 254): 2 µg/mL (≈ 4.46 µM)
- MIC90 (E. coli [3]; Escherichia coli, n = 254): 8 µg/mL (≈ 17.8 µM)
- % of isolates inhibited at ≤8 mg/L (E. coli [3]; KPC producing E. coli): 94.6%
- % of isolates inhibited at ≤8 mg/L (E. coli [3]; NDM producing E. coli): 100%
- % of isolates inhibited at ≤8 mg/L (E. coli [3]; OXA-48-like producing E. coli): 92.1%
- Effect of levofloxacin non-susceptibility or QRDR substitutions in GyrA and ParC on activity (E. coli [3]; QRDR data for 188 of 254 isolates): unaffected
- Number of Isolates at Gepotidacin MIC 0.5 mg/L (E. coli [3]; n = 254): 22
- Number of Isolates at Gepotidacin MIC 1 mg/L (E. coli [3]; n = 254): 56
- Number of Isolates at Gepotidacin MIC 2 mg/L (E. coli [3]; n = 254): 92
- Number of Isolates at Gepotidacin MIC 4 mg/L (E. coli [3]; n = 254): 37
- Number of Isolates at Gepotidacin MIC 8 mg/L (E. coli [3]; n = 254): 33
- Number of Isolates at Gepotidacin MIC ≤0.25 mg/L (E. coli [3]; n = 254): 4
- Number of Isolates at Gepotidacin MIC ≥16 mg/L (E. coli [3]; n = 254): 10
- MIC90 [4]: 4 µg/mL
- MIC90 [5]: 2 µg/mL
- MIC90 (Bilophila wadsworthia): 0.5 µg/mL (≈ 1.11 µM)
